The values that follow come from US20230123334A1, “AMINO LIPID COMPOUND, PREPARATION METHOD THEREFOR, AND APPLICATION THEREOF” (SHENZHEN SHENXIN BIOTECHNOLOGY CO., LTD., priority 2020, published 2023).

The test system of this test is HEK293 cells. Description: Preliminary screening as DNA vectors, GFP transfection of HEK293 cells. It is filed as cell-based. The conditions noted are these: amino lipid/DOPE liposome with 75 ng plasmid DNA (psin-EGFP-IRES-Puro); number of GFP-expressing cells divided by total nuclei (Hoechst). Summed up:
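First, amino lipid and DOPE were vortexed in sodium acetate buffer (pH 5.6) to form liposomes. Next, these were held with 75 ng EGFP plasmid at room temperature for 30 min. Finally, HEK293 cells were added, cultured at 37° C., Hoechst-stained, and GFP+/total nuclei scored by imaging.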

Regarding `CCCCCCCSc1nc(NCCN2CCCCC2)nc(SCCCCCCC)n1` [S7S7 D4], the “Absolute DNA transfection efficiency in HEK293 cells” value (shortened to “Absolute DNA transfection efficiency”) came to 0.0%.
For `CCCCCCCSc1nc(NCCN2CCN(C)CC2)nc(SCCCCCCC)n1` [S7S7 D5], the “Absolute DNA transfection efficiency” value was determined as 4.8%.
As for `CCCCCCCSc1nc(NCCCN(C)C)nc(SCCCCCCC)n1` [S7S7 D6], the figure is 10.3%; as for `CCCCCCCSc1nc(NCCN(CC)CC)nc(SCCCCCCC)n1` [S7S7 D7], 9.3%.
As for `CCCCCCCSc1nc(NCCCN2CCOCC2)nc(SCCCCCCC)n1` [S7S7 D8], the figure is 0.6%; as for `CCCCCCCSc1nc(NCCCN2CCN(C)CC2)nc(SCCCCCCC)n1` [S7S7 D9], 7.9%.
Consider `CCCCCCCSc1nc(NCC2CCN(C)CC2)nc(SCCCCCCC)n1` [S7S7 D10], for which the “Absolute DNA transfection efficiency” value worked out at 5.5%.
To `CCCCCCCCSc1nc(NCCN(C)C)nc(SCCCCCCC)n1` [S7S8 D1] belongs 6.7%; to `CCCCCCCCSc1nc(NCCN2CCOCC2)nc(SCCCCCCC)n1` [S7S8 D2], 0.0%; to `CCCCCCCCSc1nc(NCCN2CCCC2)nc(SCCCCCCC)n1` [S7S8 D3], 9.2%.
`CCCCCCCCSc1nc(NCCN2CCCCC2)nc(SCCCCCCC)n1` [S7S8 D4]: the “Absolute DNA transfection efficiency” value turned out to be 7.0%.
To `CCCCCCCCSc1nc(NCCN2CCN(C)CC2)nc(SCCCCCCC)n1` [S7S8 D5] belongs 11.2%; to `CCCCCCCCSc1nc(NCCCN(C)C)nc(SCCCCCCC)n1` [S7S8 D6], 3.6%; to `CCCCCCCCSc1nc(NCCN(CC)CC)nc(SCCCCCCC)n1` [S7S8 D7], 5.8%.
To `CCCCCCCCSc1nc(NCCCN2CCOCC2)nc(SCCCCCCC)n1` [S7S8 D8] belongs 3.7%.
On to `CCCCCCCCSc1nc(NCCCN2CCN(C)CC2)nc(SCCCCCCC)n1` [S7S8 D9], for which the “Absolute DNA transfection efficiency” value turned out to be 10.2%.
To `CCCCCCCCSc1nc(NCC2CCN(C)CC2)nc(SCCCCCCC)n1` [S7S8 D10] belongs 0.0%.
To `CCCCCCCCCSc1nc(NCCN(C)C)nc(SCCCCCCC)n1` [S7S9 D1] belongs 10.8%.
Turning to `CCCCCCCCCSc1nc(NCCN2CCOCC2)nc(SCCCCCCC)n1` [S7S9 D2], the “Absolute DNA transfection efficiency” value turned out to be 28.8%.
To `CCCCCCCCCSc1nc(NCCN2CCCC2)nc(SCCCCCCC)n1` [S7S9 D3] belongs 21.5%; to `CCCCCCCCCSc1nc(NCCN2CCCCC2)nc(SCCCCCCC)n1` [S7S9 D4], 15.1%; to `CCCCCCCCCSc1nc(NCCN2CCN(C)CC2)nc(SCCCCCCC)n1` [S7S9 D5], 12.5%.
For the molecule `CCCCCCCCCSc1nc(NCCCN(C)C)nc(SCCCCCCC)n1` [S7S9 D6], the “Absolute DNA transfection efficiency” value was 3.4%.
To `CCCCCCCCCSc1nc(NCCN(CC)CC)nc(SCCCCCCC)n1` [S7S9 D7] belongs 14.5%.
As for `CCCCCCCCCSc1nc(NCCCN2CCOCC2)nc(SCCCCCCC)n1` [S7S9 D8], the figure is 12.2%.
As for `CCCCCCCCCSc1nc(NCCCN2CCN(C)CC2)nc(SCCCCCCC)n1` [S7S9 D9], the figure is 17.1%; as for `CCCCCCCCCSc1nc(NCC2CCN(C)CC2)nc(SCCCCCCC)n1` [S7S9 D10], 16.3%; as for `CCCCCCCCCCSc1nc(NCCN(C)C)nc(SCCCCCCC)n1` [S7S10 D1], 21.8%.
For `CCCCCCCCCCSc1nc(NCCN2CCOCC2)nc(SCCCCCCC)n1` [S7S10 D2], the “Absolute DNA transfection efficiency” value stood at 23.6%.
To `CCCCCCCCCCSc1nc(NCCN2CCCC2)nc(SCCCCCCC)n1` [S7S10 D3] belongs 19.4%; to `CCCCCCCCCCSc1nc(NCCN2CCCCC2)nc(SCCCCCCC)n1` [S7S10 D4], 8.1%.
As for `CCCCCCCCCCSc1nc(NCCN2CCN(C)CC2)nc(SCCCCCCC)n1` [S7S10 D5], the figure is 10.6%; as for `CCCCCCCCCCSc1nc(NCCCN(C)C)nc(SCCCCCCC)n1` [S7S10 D6], 4.7%.
To `CCCCCCCCCCSc1nc(NCCN(CC)CC)nc(SCCCCCCC)n1` [S7S10 D7] belongs 20.2%; to `CCCCCCCCCCSc1nc(NCCCN2CCOCC2)nc(SCCCCCCC)n1` [S7S10 D8], 18.0%; to `CCCCCCCCCCSc1nc(NCCCN2CCN(C)CC2)nc(SCCCCCCC)n1` [S7S10 D9], 23.9%.
For `CCCCCCCCCCSc1nc(NCC2CCN(C)CC2)nc(SCCCCCCC)n1` [S7S10 D10], the “Absolute DNA transfection efficiency” value stood at 25.2%.
As for `CCCCCCCCCCCSc1nc(NCCN(C)C)nc(SCCCCCCC)n1` [S7S11 D1], the figure is 10.8%.
To `CCCCCCCCCCCSc1nc(NCCN2CCOCC2)nc(SCCCCCCC)n1` [S7S11 D2] belongs 27.3%; to `CCCCCCCCCCCSc1nc(NCCN2CCCC2)nc(SCCCCCCC)n1` [S7S11 D3], 9.7%.
As for `CCCCCCCCCCCSc1nc(NCCN2CCCCC2)nc(SCCCCCCC)n1` [S7S11 D4], the figure is 14.2%; as for `CCCCCCCCCCCSc1nc(NCCN2CCN(C)CC2)nc(SCCCCCCC)n1` [S7S11 D5], 32.4%.
On to `CCCCCCCCCCCSc1nc(NCCCN(C)C)nc(SCCCCCCC)n1` [S7S11 D6], for which the “Absolute DNA transfection efficiency” value is listed as 28.7%.
With `CCCCCCCCCCCSc1nc(NCCN(CC)CC)nc(SCCCCCCC)n1` [S7S11 D7], the “Absolute DNA transfection efficiency” value is 10.4%.
To `CCCCCCCCCCCSc1nc(NCCCN2CCOCC2)nc(SCCCCCCC)n1` [S7S11 D8] belongs 11.1%; to `CCCCCCCCCCCSc1nc(NCCCN2CCN(C)CC2)nc(SCCCCCCC)n1` [S7S11 D9], 25.9%; to `CCCCCCCCCCCSc1nc(NCC2CCN(C)CC2)nc(SCCCCCCC)n1` [S7S11 D10], 39.1%.
As for `CCCCCCCCCCCCSc1nc(NCCN(C)C)nc(SCCCCCCC)n1` [S7S12 D1], the “Absolute DNA transfection efficiency” value is 8.2%.
On to `CCCCCCCCCCCCSc1nc(NCCN2CCOCC2)nc(SCCCCCCC)n1` [S7S12 D2], for which the “Absolute DNA transfection efficiency” value is recorded as 18.0%.
Regarding `CCCCCCCCCCCCSc1nc(NCCN2CCCC2)nc(SCCCCCCC)n1` [S7S12 D3], the “Absolute DNA transfection efficiency” value was determined as 9.9%.
Take `CCCCCCCCCCCCSc1nc(NCCN2CCCCC2)nc(SCCCCCCC)n1` [S7S12 D4]: the “Absolute DNA transfection efficiency” value worked out at 9.5%.
As for `CCCCCCCCCCCCSc1nc(NCCN2CCN(C)CC2)nc(SCCCCCCC)n1` [S7S12 D5], the figure is 9.6%; as for `CCCCCCCCCCCCSc1nc(NCCCN(C)C)nc(SCCCCCCC)n1` [S7S12 D6], 11.7%.
Consider `CCCCCCCCCCCCSc1nc(NCCN(CC)CC)nc(SCCCCCCC)n1` [S7S12 D7], for which the “Absolute DNA transfection efficiency” value came to 7.1%.
To `CCCCCCCCCCCCSc1nc(NCCCN2CCOCC2)nc(SCCCCCCC)n1` [S7S12 D8] belongs 10.9%.
As for `CCCCCCCCCCCCSc1nc(NCCCN2CCN(C)CC2)nc(SCCCCCCC)n1` [S7S12 D9], the figure is 4.8%; as for `CCCCCCCCCCCCSc1nc(NCC2CCN(C)CC2)nc(SCCCCCCC)n1` [S7S12 D10], 21.3%; as for `CCCCCCCCCCCCCCSc1nc(NCCN(C)C)nc(SCCCCCCC)n1` [S7S14 D1], 7.7%.
To `CCCCCCCCCCCCCCSc1nc(NCCN2CCOCC2)nc(SCCCCCCC)n1` [S7S14 D2] belongs 15.9%; to `CCCCCCCCCCCCCCSc1nc(NCCN2CCCC2)nc(SCCCCCCC)n1` [S7S14 D3], 8.4%; to `CCCCCCCCCCCCCCSc1nc(NCCN2CCCCC2)nc(SCCCCCCC)n1` [S7S14 D4], 9.1%.
For the molecule `CCCCCCCCCCCCCCSc1nc(NCCN2CCN(C)CC2)nc(SCCCCCCC)n1` [S7S14 D5], the “Absolute DNA transfection efficiency” value is given as 10.7%.
With `CCCCCCCCCCCCCCSc1nc(NCCCN(C)C)nc(SCCCCCCC)n1` [S7S14 D6], the “Absolute DNA transfection efficiency” value stood at 4.4%.
In the case of `CCCCCCCCCCCCCCSc1nc(NCCN(CC)CC)nc(SCCCCCCC)n1` [S7S14 D7], the “Absolute DNA transfection efficiency” value is given as 4.0%.
As for `CCCCCCCCCCCCCCSc1nc(NCCCN2CCOCC2)nc(SCCCCCCC)n1` [S7S14 D8], the figure is 11.0%; as for `CCCCCCCCCCCCCCSc1nc(NCCCN2CCN(C)CC2)nc(SCCCCCCC)n1` [S7S14 D9], 3.8%; as for `CCCCCCCCCCCCCCSc1nc(NCC2CCN(C)CC2)nc(SCCCCCCC)n1` [S7S14 D10], 26.7%.
To `CCCCCCCCCCCCCCCSc1nc(NCCN(C)C)nc(SCCCCCCC)n1` [S7S15 D1] belongs 9.4%; to `CCCCCCCCCCCCCCCSc1nc(NCCN2CCOCC2)nc(SCCCCCCC)n1` [S7S15 D2], 24.0%; to `CCCCCCCCCCCCCCCSc1nc(NCCN2CCCC2)nc(SCCCCCCC)n1` [S7S15 D3], 4.6%.
